Reference: patent US10322112B2, “Compound combinations for attenuation of bacterial virulence” (priority 2016, dated 2019)
Values joined by “and” are separate entries in the source; they are usually repeats but may differ in a detail not shown here. Equal entries are not always repeated. “Also recorded” adds a separate entry of the source.

What was measured:
RhlR [1] = biological target: T1, RhlR (Pseudomonas aeruginosa, UniProt P54292); assay: P. aeruginosa reporter assay, RhlR agonism (native ligand); assay type: cell-based
T1 construct: expressed in transfected cells; host or cells: E. coli JLD271
T1 sequence (P54292 whole entry): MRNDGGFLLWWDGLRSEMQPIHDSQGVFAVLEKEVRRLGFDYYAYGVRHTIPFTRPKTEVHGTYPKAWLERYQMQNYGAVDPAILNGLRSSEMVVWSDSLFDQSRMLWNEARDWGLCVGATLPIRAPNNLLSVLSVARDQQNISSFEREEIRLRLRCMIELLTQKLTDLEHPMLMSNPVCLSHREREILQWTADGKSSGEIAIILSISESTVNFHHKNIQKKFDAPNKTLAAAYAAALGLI
Protocol: (§1) P. aeruginosa reporter assays: Primary assays for RhlR activity in P. aeruginosa were performed as previously reported for LasR, [33] with the following modifications: OdDHL was added to the subculture to a final concentration of 100 nm immediately before it was dispensed into plates to induce expression of RhlR. For RhlR antagonism assays, synthetic ligand (100 mm) was screened against BHL at its EC50 (30 mm). For RhlR agonism assays, synthetic ligand (100 mm) was screened alongside and compared to BHL (at 900 mm) for the system. Dose-response reporter gene assays were performed according to these protocols by using various concentrations of compound.

P. aeruginosa (PAO1) [2] = assay: P. aeruginosa growth curves; assay type: cell-based, Pseudomonas aeruginosa
Protocol: FIGS. 2A-2D are wild-type P. aeruginosa growth curves in the presence of test compounds in various media. Related to FIGS. 3, 6A and 6B, 7A and 7B, and 12. (FIG. 2A) Growth curves in complete MOPS/Glutamate. (FIG. 2B) Growth curves in complete MOPS/Glucose. […] (FIG. 2D) Growth curves in SCFM2. P. aeruginosa (PAO1) was grown in a manner identical to the pyocyanin assay (see Experimental Procedures). At each time point, growth was measured by either reading OD600 (for MOPS media) or by serially diluting culture aliquots, plating on LB agar, and counting CFUs after overnight incubation at 37° C. (for SCFM2). Compound concentrations are 100 microM for compounds 1, 2, and 3 and 25 microM for compound 4 in all experiments unless noted otherwise. Error bars represent the standard error of at least two biological replicates (n≥2). BHL=N-butyryl L-homoserine lactone (Cayman Chemicals).
B. Bacterial Strains and Growth Conditions. Protocols for construction of genetic knockout strains are described below in Example 2. All reagents for bacterial culture were purchased from Sigma-Aldrich unless indicated otherwise. Bacteria were routinely cultured in Luria-Bertani broth (LB) at 37° C. with shaking at 200 rpm. Freezer stocks of bacterial strains were maintained at −80° C. in 1:1 LB:glycerol. Bacterial growth was routinely assessed by measuring the culture cell density according to absorbance at 600 nm (OD600341). Cell growth in simulated cystic fibrosis sputum medium (SCFM2) was determined by serially diluting assay cultures, plating on LB agar, and counting the number of colony forming units (CFU) appearing after overnight incubation at 37° C.

RhlR [3] = biological target: T1, RhlR; assay: E. coli reporter gene antagonism assay, RhlR; assay type: cell-based
Protocol: Percent agonism of a given non-native inducer in a given bacterium and QS system receptor is measured with resepct to the maximum level of agonism (activation) by the native ligand of that receptor in the given bacterium. Percent antagonism is measured in competitive assays. The QS system of interest is activated to 100% with added or endogenous native ligand and the % antagonism of the non-native inducer is assessed with respect to 100% activation by the native inducer. The native ligand which induces LasR is OdDHL, which induces RhlR is BHL and which induces PqsR is PQS. As described herein and in cited references, assays for assessment of % agonism or % atangonism may be performed in E. coli systems (heterologous) or in the bacterium of interest, e.g., Pseudomonas. Dependent upon the assay system employed native ligand may be endogenously present or it may be exogenously supplied to the assay system. […] In antagonism assays using the native strains with functional QS systems, e.g., those of P. aeruginosa, endogenous native ligand is made in the system, so no native ligand is added. In native strains having one or more non-functional QS systems (mutant strains), e.g., P. aeruginosa mutants with non-functional QS systems, native ligand is added at about 10-100× the EC50 of the native ligand. In the agonism assay, native ligand is added as a control. Details of the assays are provided herein in Example 9 and in references cited in Example 9.

RhlR [4] = biological target: T1, RhlR; assay: P. aeruginosa reporter assay, RhlR antagonism; assay type: cell-based
Protocol: as §1

P. aeruginosa (PAO1) [5] = assay: Pyocyanin assay; assay type: cell-based, Pseudomonas aeruginosa
Protocol: A. Pyocyanin Assay Protocol. The amount of pyocyanin in P. aeruginosa culture supernatants was measured following a reported protocol (O'Loughlin et al., 2013) with modifications. A 10 mL overnight culture of P. aeruginosa PAO1 was grown for 16 h. DMSO stock solutions of test compounds (20 mM) were prepared, and 10 μL or 5 μL aliquots were added to sterile 15 mL borosilicate glass test tubes. An inoculating culture was prepared by diluting the overnight culture 1:100 into freshly prepared assay medium (see above), and 2 mL aliquots of this subculture were added to each test tube (0.5% DMSO, final). The cultures were grown for 17 h, and the final cell density measured by reading OD600. Relative pyocyanin levels were measured by first pelleting 1.5 mL of well-mixed culture at 4,000 g for 10 min, transferring 200 μL of the resulting supernatant to a clear, plastic 96-well microtiter plate, and reading absorbance at 695 nm. Media background absorbance (measured from a “no bacteria” control) was subtracted, the resulting values growth normalized by dividing by the final OD600378, and the data plotted relative to a DMSO-treated positive control. B. Rhamnolipid Assay Protocol. Rhamnolipid was quantified following a reported protocol (Koch et al., 1991) with modifications. Assay cultures were prepared and grown in an identical manner to the pyocyanin assay above. Aliquots of the final culture supernatant (1 mL) were transferred to 1 dram glass vials and extracted twice with 1 mL diethyl ether. The pooled organic fractions were evaporated to dryness, and the resulting residue reconstituted in 200 μL de-ionized water. In a 1.7 mL plastic centrifuge tube, 50 μL of this extract was diluted into 450 μL of a solution of 0.19% (w/v) orcinol in 50% (v/v) concentrated H2SO4 (or 20 μL extract into 480 μL orcinol solution for cultures grown in MOPS Glucose medium). The tubes were vortexed thoroughly to mix and incubated in an 80° C. heating block for 30 min. After briefly cooling to room temperature, 200 μL of the resulting yellow to yellow-orange solution was transferred to a clear 96-well microtiter plate, and the absorbance at 421 nm measured. Media background absorbance (measured from a “no bacteria” control) was subtracted, the resulting values growth normalized by dividing by the final OD600, and the data plotted relative to a DMSO-treated positive control. C. Elastase B Assay Protocol. The amount of elastase B in P. aeruginosa culture supernatants was measured following a reported protocol (Geske et al., 2007) with modifications. Assay cultures were prepared and grown in an identical manner to the pyocyanin assay above. Aliquots of the final culture supernatant (50 μL) were added to the wells of a clear, plastic 96-well plate. To each well, 150 μL of 0.5% (w/v) elastin-congo red conjugate (Elastin Products Co.) in Tris buffer (10 mM Tris-HCl, 1 mM CaCl2, pH 7.2) was added. The plate was sealed with a polypropylene storage mat (Costar 3080) and incubated in a 37° C. shaking incubator (200 rpm) attached to a Labquake rotator for 12 h (for experiments in SCFM2) or 24 h (for experiments in MOPS medium). To quantify elastase B activity, the undigested elastin was pelleted by centrifugation of the assay plate at 1,500 g for 10 min, after which 100 μL of the supernatant was transferred to a new, clear 96-well plate, and the absorbance at 490 nm measured. Media background absorbance (measured from a “no bacteria” control) was subtracted, the resulting values growth normalized by dividing by the final OD600, and the data plotted relative to a DMSO-treated positive control.

P. aeruginosa (PAO1) [6] = assay: Rhamnolipid assay; assay type: cell-based, Pseudomonas aeruginosa; conditions: MOPS Glutamate and Glucose media, complete or iron/phosphate depleted, 17 h, 100 μM (compounds 1, 2, 3), 25 μM (compound 4), relative to DMSO
Protocol: (§2) A. Pyocyanin Assay Protocol. The amount of pyocyanin in P. aeruginosa culture supernatants was measured following a reported protocol (O'Loughlin et al., 2013) with modifications. A 10 mL overnight culture of P. aeruginosa PAO1 was grown for 16 h. DMSO stock solutions of test compounds (20 mM) were prepared, and 10 μL or 5 μL aliquots were added to sterile 15 mL borosilicate glass test tubes. An inoculating culture was prepared by diluting the overnight culture 1:100 into freshly prepared assay medium (see above), and 2 mL aliquots of this subculture were added to each test tube (0.5% DMSO, final). The cultures were grown for 17 h, and the final cell density measured by reading OD600. Relative pyocyanin levels were measured by first pelleting 1.5 mL of well-mixed culture at 4,000 g for 10 min, transferring 200 μL of the resulting supernatant to a clear, plastic 96-well microtiter plate, and reading absorbance at 695 nm. Media background absorbance (measured from a “no bacteria” control) was subtracted, the resulting values growth normalized by dividing by the final OD600378, and the data plotted relative to a DMSO-treated positive control. B. Rhamnolipid Assay Protocol. Rhamnolipid was quantified following a reported protocol (Koch et al., 1991) with modifications. Assay cultures were prepared and grown in an identical manner to the pyocyanin assay above. Aliquots of the final culture supernatant (1 mL) were transferred to 1 dram glass vials and extracted twice with 1 mL diethyl ether. The pooled organic fractions were evaporated to dryness, and the resulting residue reconstituted in 200 μL de-ionized water. […] After briefly cooling to room temperature, 200 μL of the resulting yellow to yellow-orange solution was transferred to a clear 96-well microtiter plate, and the absorbance at 421 nm measured. Media background absorbance (measured from a “no bacteria” control) was subtracted, the resulting values growth normalized by dividing by the final OD600, and the data plotted relative to a DMSO-treated positive control. […] The amount of elastase B in P. aeruginosa culture supernatants was measured following a reported protocol (Geske et al., 2007) with modifications. […] To quantify elastase B activity, the undigested elastin was pelleted by centrifugation of the assay plate at 1,500 g for 10 min, after which 100 μL of the supernatant was transferred to a new, clear 96-well plate, and the absorbance at 490 nm measured. Media background absorbance (measured from a “no bacteria” control) was subtracted, the resulting values growth normalized by dividing by the final OD600, and the data plotted relative to a DMSO-treated positive control.

P. aeruginosa (PAO1) [7] = assay: Elastase B assay; assay type: cell-based, Pseudomonas aeruginosa; conditions: MOPS Glutamate and Glucose media, complete or iron/phosphate depleted, 17 h, 100 μM (compounds 1, 2, 3), relative to DMSO
Protocol: as §2

Structure (SMILES): CCCC(=O)N[C@H]1CCOC1=O [BHL, N-butyryl L-homoserine lactone, reference compound]
- EC50 (RhlR [1]): ~8 µM
- growth in MOPS Glutamate (P. aeruginosa (PAO1) [2]; complete MOPS Glutamate, 100 μM): also produced the growth delay

Structure (SMILES): O=C(COc1ccc(I)cc1)N[C@H]1CCSC1=O [RN22]
- IC50 (RhlR [3]): 19.6 µM
- IC50 (RhlR [4]; IC50, antagonism, P. aeruginosa reporter, 95% CI: 19.6 μM-50.4 μM): 31.4 µM and 31 µM
- concentration blocking native ligand activity by 50%, relative to native ligand EC50 (RhlR [4]; IC50 in P. aeruginosa compared with EC50 of native RhlR ligand): less than 4 fold

Structure (SMILES): CCCCCCCCCC(=O)CC(=O)Nc1ccccc1 [compound 1]
- pyocyanin production, single compound screens (P. aeruginosa (PAO1) [5]; MOPS Glutamate and Glucose media, complete or iron/phosphate depleted, 17 h, 100 μM (compounds 1, 2, 3), 25 μM (compound 4), relative to DMSO): strong pyocyanin inhibition, unless phosphate concentrations were low
- pyocyanin production over time, low phosphate medium (P. aeruginosa (PAO1) [5]; MOPS Glutamate with phosphate diluted 10-fold, 100 microM compound 1): does not attenuate pyocyanin production; also recorded: little to no effect
- pyocyanin production over time, complete medium (P. aeruginosa (PAO1) [5]; complete MOPS Glutamate, 100 microM compound 1): eliminated pyocyanin synthesis
- rhamnolipid production, single compound screens (P. aeruginosa (PAO1) [6]): little to no effect
- elastase B production, single compound screens (P. aeruginosa (PAO1) [7]): little to no effect
- effect on cell growth, compound 1 (P. aeruginosa (PAO1) [2]; MOPS Glutamate, 100 microM compound 1): no effect on cell growth
